Data as given in ChEMBL document CHEMBL5380857, “Discovery of Potent, Selective, and Orally Bioavailable Small-Molecule Inhibitors of CDK8 for the Treatment of Cancer” (J Med Chem, 2023).
Calls of active or inactive are those of the source. The calls are words filed in the database; no cut-off is given here.

Legend:
Mus musculus = assay: In vivo inhibition of STAT1 phosphorylation at S727 residue in BALB/c nude mouse xenografted with human MV4-11 cells assessed as reduction in p-STAT1 protein level administered orally by gavage twice per day for 17 days and measured 24 hrs post last dose by Western blot analysis; format: functional, organism-based; settings: dose 1-10 mg/kg, route po, time 17.0 day
[1] = Metabolic stability in mouse liver microsomes assessed as intrinsic clearance at 1 uM preincubated for 10 mins followed by NADPH addition and measured for 60 mins by LC-MS/MS analysis; format: ADME, Microsome; settings: read-out: CLH
Cytochrome P450 3A4 = Cytochrome P450 3A4 (Homo sapiens, UniProt P08684); assay: Inhibition of CYP3A4 in human liver microsomes using midazolam as substrate assessed as reduction in substrate hydroxylation incubated for 10 mins in presence of NADPH by LC-MS/MS analysis; format: ADME, Microsome
[2] = Half life in CD-1 mouse at 5 mg/kg, po or 1 mg/kg, iv administered as single dose and measured for 24 hrs by LC-MS/MS analysis; format: ADME, organism-based; settings: in vivo
[3] = biological target: Dual specificity tyrosine-phosphorylation-regulated kinase 1B (Homo sapiens, UniProt Q9Y463); assay: Binding affinity to DYRK1B (unknown origin) assessed as dissociation constant by competitive binding assay
[4] = Antitumor activity against mouse LL2 cells implanted in C57BL/6J syngeneic mouse model assessed as tumor growth inhibition at 1 mg/kg, po administered via gavage twice daily for 14 days in presence of mPDL1 antibody administered twice per week and measured 3 times a week by caliper method relative to control; format: functional; settings: Lewis lung carcinoma, 336 h, time 14 day, read-out: TGI
[5] = Volume of distribution in Beagle dog at 1 mg/kg, po or 0.5 mg/kg, iv administered as single dose and measured for 24 hrs by LC-MS/MS analysis; format: ADME, organism-based, Canis lupus familiaris; settings: in vivo
[6] = biological target: Dual specificity protein kinase CLK1 (Homo sapiens, UniProt P49759); assay: Binding affinity to CLK1 (unknown origin) assessed as dissociation constant by competitive binding assay
[7] = Clearance in Beagle dog assessed as liver blood flow at 1 mg/kg, po or 0.5 mg/kg, iv administered as single dose and measured for 24 hrs by LC-MS/MS analysis; format: ADME, organism-based, Canis lupus familiaris; settings: in vivo
[8] = biological target: Voltage-gated inwardly rectifying potassium channel KCNH2 (Homo sapiens, UniProt Q12809); assay: Inhibition of hERG expressed in CHO cells at -80 mV holding potential by whole cell patch clamp recording assay; format: toxicity, cell-based
[9] = Bioavailability in Beagle dog at 1 mg/kg, po or 0.5 mg/kg, iv administered as single dose and measured for 24 hrs by LC-MS/MS analysis; format: ADME, organism-based, Canis lupus familiaris; settings: in vivo
Cytochrome P450 2C9 = Cytochrome P450 2C9 (Homo sapiens, UniProt P11712); assay: Inhibition of CYP2C9 in human liver microsomes using diclofenac as substrate assessed as reduction in substrate hydroxylation incubated for 10 mins in presence of NADPH by LC-MS/MS analysis; format: ADME, Microsome
[10] = Half life in Beagle dog at 1 mg/kg, po or 0.5 mg/kg, iv administered as single dose and measured for 24 hrs by LC-MS/MS analysis; format: ADME, organism-based, Canis lupus familiaris; settings: in vivo
[11] = biological target: Cyclin-dependent kinase 19 (Homo sapiens, UniProt Q9BWU1); assay: Inhibition of CDK19 (unknown origin)
[12] = biological target: Glycogen synthase kinase-3 alpha (Homo sapiens, UniProt P49840); assay: Binding affinity to GSK3A (unknown origin) assessed as dissociation constant by competitive binding assay
Cytochrome P450 2C19 = Cytochrome P450 2C19 (Homo sapiens, UniProt P33261); assay: Inhibition of CYP2C19 in human liver microsomes using S-mephenytoin as substrate assessed as reduction in substrate hydroxylation incubated for 10 mins in presence of NADPH by LC-MS/MS analysis; format: ADME, Microsome
[13] = Cytotoxicity against HEK293 cells; format: toxicity, cell-based; settings: human
[14] = biological target: Glycogen synthase kinase-3 beta (Homo sapiens, UniProt P49841)
Description: Binding affinity to GSK3B (unknown origin) assessed as dissociation constant by competitive binding assay

MV4-11 [15] = assay: Antitumor activity against human MV4-11 cells xenografted in BALB/c nude mouse assessed as inhibition of tumor growth administered orally by gavage twice per day for 17 days and measured 3 times per week by caliper method; format: functional, cell-based; settings: dose 1-10 mg/kg, route po, time 17.0 day
Cytochrome P450 2D6 = Cytochrome P450 2D6 (Homo sapiens, UniProt P10635); assay: Inhibition of CYP2D6 in human liver microsomes using dextromethorphan as substrate assessed as reduction in substrate demethylation incubated for 10 mins in presence of NADPH by LC-MS/MS analysis; format: ADME, Microsome
MV4-11 [16] = assay: Antiproliferative activity against human MV4-11 cells assessed as inhibition of cell growth incubated for 10 days and replacement with fresh media with compounds on day 5 by CTG assay; format: functional, cell-based
MV4-11 [17] = assay: Induction of cell cycle arrest in human MV4-11 cells assessed as accumulation of cells at G0/G1 phase at 0.01 to 1 uM incubated for 48 hrs; format: functional, cell-based; settings: dose 0.01-1 µM
[18] = biological target: T1, Signal transducer and activator of transcription 1-alpha/beta (Homo sapiens) (UniProt P42224); assay: Inhibition of STAT1 phosphorylation at S727 residue in human MV4-11 cells incubated for 24 hrs by Western blot analysis; format: cell-based; settings: dose 0.001-1 µM
T1 sequence (whole entry): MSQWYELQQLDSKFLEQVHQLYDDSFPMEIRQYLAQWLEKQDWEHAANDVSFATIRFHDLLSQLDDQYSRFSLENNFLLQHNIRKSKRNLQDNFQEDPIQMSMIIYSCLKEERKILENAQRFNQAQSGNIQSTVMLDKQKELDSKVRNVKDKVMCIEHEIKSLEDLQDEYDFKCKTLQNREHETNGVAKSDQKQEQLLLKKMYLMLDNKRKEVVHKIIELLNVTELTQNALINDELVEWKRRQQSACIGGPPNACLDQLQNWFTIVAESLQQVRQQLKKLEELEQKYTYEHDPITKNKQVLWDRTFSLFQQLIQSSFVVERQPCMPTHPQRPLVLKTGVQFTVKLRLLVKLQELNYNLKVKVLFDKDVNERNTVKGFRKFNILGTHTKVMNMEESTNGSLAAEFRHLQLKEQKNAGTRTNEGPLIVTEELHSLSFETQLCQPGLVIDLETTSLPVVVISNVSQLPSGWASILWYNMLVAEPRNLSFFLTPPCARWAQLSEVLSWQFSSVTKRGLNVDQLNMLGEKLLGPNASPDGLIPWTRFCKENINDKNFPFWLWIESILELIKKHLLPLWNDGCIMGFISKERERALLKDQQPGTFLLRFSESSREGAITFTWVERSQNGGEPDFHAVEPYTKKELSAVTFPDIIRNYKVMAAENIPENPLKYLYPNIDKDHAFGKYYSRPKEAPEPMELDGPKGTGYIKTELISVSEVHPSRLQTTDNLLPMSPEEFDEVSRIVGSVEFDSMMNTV

[19] = biological target: Dual specificity protein kinase CLK2 (Homo sapiens, UniProt P49760); assay: Binding affinity to CLK2 (unknown origin) assessed as dissociation constant by competitive binding assay
[20] = Bioavailability in Sprague-Dawley rat at 5 mg/kg, po or 1 mg/kg, iv administered as single dose and measured for 24 hrs by LC-MS/MS analysis; format: ADME, organism-based; settings: in vivo

Voltage-gated inwardly rectifying potassium channel KCNH2, sequence (Q12809 whole entry): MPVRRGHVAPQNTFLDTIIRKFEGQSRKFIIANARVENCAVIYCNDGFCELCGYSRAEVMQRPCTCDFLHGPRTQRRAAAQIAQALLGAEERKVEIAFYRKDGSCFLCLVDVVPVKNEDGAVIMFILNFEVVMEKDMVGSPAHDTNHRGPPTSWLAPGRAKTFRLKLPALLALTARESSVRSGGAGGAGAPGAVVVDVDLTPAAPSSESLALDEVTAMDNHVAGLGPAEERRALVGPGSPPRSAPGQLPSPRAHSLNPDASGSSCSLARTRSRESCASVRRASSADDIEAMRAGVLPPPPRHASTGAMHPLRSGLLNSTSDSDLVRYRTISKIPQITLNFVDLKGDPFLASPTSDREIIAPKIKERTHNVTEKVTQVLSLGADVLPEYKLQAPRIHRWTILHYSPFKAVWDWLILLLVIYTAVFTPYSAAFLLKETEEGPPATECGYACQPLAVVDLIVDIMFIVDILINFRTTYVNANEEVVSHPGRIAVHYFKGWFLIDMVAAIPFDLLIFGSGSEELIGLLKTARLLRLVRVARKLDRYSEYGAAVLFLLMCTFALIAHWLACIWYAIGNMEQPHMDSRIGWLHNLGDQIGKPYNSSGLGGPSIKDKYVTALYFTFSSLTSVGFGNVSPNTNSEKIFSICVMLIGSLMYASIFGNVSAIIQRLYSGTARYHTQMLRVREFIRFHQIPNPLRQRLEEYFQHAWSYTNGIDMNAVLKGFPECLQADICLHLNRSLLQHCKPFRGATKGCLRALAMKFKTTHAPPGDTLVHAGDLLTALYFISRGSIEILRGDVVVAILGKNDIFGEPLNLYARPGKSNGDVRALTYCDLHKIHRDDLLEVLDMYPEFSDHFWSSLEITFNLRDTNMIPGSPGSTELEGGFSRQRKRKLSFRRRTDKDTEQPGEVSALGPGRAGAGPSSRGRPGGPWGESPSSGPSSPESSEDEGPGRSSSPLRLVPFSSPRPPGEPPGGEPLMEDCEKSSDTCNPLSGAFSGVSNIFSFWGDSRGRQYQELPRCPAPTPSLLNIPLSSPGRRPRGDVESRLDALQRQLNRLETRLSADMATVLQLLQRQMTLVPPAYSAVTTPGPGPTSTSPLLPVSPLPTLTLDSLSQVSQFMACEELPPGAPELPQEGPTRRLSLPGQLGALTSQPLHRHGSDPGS
Cytochrome P450 2C19, sequence (P33261 whole entry): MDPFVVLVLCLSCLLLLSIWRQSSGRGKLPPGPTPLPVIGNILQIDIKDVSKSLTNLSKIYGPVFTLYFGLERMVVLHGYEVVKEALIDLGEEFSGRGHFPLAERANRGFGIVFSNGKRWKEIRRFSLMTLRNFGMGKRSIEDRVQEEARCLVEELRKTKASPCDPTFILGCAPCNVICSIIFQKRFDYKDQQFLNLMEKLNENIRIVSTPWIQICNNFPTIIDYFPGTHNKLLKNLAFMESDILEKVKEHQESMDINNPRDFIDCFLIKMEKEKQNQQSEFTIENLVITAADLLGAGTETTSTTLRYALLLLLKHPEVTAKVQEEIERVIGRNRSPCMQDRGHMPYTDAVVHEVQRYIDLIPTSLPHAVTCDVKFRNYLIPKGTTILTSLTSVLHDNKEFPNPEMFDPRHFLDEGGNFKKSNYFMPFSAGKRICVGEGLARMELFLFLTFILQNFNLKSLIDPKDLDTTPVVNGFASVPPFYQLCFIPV
Dual specificity protein kinase CLK1, sequence (P49759 whole entry): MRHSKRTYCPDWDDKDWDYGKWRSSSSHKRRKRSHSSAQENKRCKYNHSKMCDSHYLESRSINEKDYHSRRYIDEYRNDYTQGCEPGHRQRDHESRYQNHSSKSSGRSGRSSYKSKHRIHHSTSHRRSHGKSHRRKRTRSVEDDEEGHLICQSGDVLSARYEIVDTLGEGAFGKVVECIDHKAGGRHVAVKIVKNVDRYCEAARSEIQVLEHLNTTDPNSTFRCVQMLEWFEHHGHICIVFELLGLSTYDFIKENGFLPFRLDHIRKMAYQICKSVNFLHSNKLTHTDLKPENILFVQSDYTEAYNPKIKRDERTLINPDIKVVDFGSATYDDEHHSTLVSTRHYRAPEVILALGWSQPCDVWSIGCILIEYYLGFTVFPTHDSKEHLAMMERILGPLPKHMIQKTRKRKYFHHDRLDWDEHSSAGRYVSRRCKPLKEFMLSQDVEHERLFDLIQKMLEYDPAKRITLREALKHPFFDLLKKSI
Dual specificity protein kinase CLK2, sequence (P49760 whole entry): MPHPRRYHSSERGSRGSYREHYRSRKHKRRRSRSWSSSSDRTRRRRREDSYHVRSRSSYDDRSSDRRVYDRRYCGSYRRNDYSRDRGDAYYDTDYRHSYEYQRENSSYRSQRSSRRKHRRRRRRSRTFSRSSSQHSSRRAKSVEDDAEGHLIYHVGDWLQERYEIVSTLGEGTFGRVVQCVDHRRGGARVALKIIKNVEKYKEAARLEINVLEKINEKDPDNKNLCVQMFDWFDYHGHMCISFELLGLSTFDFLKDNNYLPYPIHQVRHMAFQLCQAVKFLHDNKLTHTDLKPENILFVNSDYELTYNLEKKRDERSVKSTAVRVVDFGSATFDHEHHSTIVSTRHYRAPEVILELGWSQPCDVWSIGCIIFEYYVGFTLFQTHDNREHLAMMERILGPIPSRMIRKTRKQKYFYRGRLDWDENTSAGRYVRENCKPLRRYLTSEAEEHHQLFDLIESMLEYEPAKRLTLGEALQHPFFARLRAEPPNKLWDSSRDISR
Cyclin-dependent kinase 19, sequence (Q9BWU1 whole entry): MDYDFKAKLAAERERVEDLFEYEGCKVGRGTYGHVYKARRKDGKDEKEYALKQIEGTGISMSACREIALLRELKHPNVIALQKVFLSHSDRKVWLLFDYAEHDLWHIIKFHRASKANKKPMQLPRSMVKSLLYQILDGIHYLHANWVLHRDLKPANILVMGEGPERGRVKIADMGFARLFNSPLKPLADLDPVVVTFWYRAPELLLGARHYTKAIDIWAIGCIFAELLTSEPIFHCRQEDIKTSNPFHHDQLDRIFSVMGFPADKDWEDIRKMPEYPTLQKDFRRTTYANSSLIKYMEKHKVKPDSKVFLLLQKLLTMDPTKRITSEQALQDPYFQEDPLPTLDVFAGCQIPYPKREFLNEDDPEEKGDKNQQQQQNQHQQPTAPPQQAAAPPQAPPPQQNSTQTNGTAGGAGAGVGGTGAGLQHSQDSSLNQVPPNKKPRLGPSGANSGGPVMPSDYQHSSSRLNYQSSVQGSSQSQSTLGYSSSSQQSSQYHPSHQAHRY
Cytochrome P450 3A4, sequence (P08684 whole entry): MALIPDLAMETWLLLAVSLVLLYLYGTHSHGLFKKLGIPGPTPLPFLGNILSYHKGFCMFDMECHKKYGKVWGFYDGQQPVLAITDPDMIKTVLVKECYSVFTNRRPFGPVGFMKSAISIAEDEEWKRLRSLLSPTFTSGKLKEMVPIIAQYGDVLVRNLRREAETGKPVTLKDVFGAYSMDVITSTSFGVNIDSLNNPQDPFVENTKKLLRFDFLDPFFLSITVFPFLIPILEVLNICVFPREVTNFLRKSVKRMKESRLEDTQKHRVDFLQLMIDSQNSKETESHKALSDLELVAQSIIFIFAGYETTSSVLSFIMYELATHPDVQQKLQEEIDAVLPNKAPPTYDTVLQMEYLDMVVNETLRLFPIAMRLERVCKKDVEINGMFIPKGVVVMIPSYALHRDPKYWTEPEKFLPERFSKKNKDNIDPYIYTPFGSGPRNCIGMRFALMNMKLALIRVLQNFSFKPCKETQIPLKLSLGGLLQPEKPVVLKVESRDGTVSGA
Cytochrome P450 2D6, sequence (P10635 whole entry): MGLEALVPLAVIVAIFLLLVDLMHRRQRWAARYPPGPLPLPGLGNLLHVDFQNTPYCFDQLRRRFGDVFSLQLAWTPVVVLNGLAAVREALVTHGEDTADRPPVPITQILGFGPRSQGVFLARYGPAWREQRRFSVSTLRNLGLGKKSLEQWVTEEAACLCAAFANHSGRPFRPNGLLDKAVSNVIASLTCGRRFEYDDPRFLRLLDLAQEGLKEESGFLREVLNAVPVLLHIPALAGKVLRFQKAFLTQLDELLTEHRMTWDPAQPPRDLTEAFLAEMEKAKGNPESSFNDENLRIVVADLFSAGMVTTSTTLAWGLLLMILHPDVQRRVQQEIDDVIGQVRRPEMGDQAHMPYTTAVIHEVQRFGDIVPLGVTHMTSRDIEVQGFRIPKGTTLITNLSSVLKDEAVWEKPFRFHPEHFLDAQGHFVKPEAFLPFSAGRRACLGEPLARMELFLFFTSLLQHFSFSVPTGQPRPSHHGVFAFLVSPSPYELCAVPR
Glycogen synthase kinase-3 beta, sequence (P49841 whole entry): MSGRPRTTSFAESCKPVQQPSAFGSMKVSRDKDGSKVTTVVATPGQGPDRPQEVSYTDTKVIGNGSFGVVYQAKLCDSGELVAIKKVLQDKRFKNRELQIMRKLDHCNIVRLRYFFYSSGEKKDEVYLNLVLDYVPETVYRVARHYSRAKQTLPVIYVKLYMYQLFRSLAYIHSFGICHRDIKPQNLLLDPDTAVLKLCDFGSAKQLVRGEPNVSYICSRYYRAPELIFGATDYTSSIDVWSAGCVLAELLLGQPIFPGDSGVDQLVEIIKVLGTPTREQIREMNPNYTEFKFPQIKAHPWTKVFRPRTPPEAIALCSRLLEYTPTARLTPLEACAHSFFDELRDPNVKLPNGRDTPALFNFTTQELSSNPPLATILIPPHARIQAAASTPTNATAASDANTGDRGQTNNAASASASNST

Compound: Cc1n[nH]c2ccc(-c3nnc(C)n3Cc3ccc(C(F)(F)F)cc3)cc12
- inhibition (Mus musculus): Dose-Dependent Effect
- CLint scaled at 1 µM [1]: 148 mL/min/kg
- IC50 (Cytochrome P450 3A4): > 50000 nM
- half-life [2]: 3.8 h
- Kd [3]: 2700 nM
- inhibition in vivo at 1 mg/kg [4]: 46.1%
- Vd [5]: 0.5 L/kg
- Kd [6]: 89 nM
- LBF [7]: 7.2%
- IC50 [8]: > 30000 nM
- bioavailability [9]: 102%
- IC50 (Cytochrome P450 2C9): 11400 nM
- half-life [10]: 4.6 h
- IC50 [11]: 2 nM
- Kd [12]: 240 nM
- IC50 (Cytochrome P450 2C19): 30800 nM
- EC50 [13]: > 10000 nM
- Kd [14]: 210 nM
- inhibition (MV4-11 [15]): Dose-Dependent Effect
- IC50 (Cytochrome P450 2D6): 44200 nM
- IC50 (MV4-11 [16]): 11.8 nM
- Activity (MV4-11 [17]): Active
- inhibition [18]: Dose-Dependent Effect
- Kd [19]: 68 nM
- bioavailability [20]: 97.7%
